pIC50: −log10 of the molar value. Structures can show the parent of a compound that is named as a salt.

Data set [1] deals with human non-small cell lung A549.
Data set [2] relates to axolotl (Ambystoma mexicanum) embryo tail regeneration.
Data set [3] in a line: cancer cell line cytotoxicity assay. The following applies: human, A549 cells (non-small cell lung cancer cell line).
The target of a further data set is Hsp90α (Homo sapiens, UniProt P07900). As to the kind of experiment: standard Hsp90α inhibition. Format: binding.
The conditions of data set [4]: second generation clinical analogue; cited from earlier work.
For data set [5] the following is noted: second generation clinical analogue; cited from earlier work. This is another data set of the same source.

For the compound 17-O-demethyl-reblastatin, in data set [1], the pIC50 was less than 4.30.

As to `COC1=C2C[C@@H](C)C[C@H](OC)[C@H](O)[C@@H](C)/C=C(\C)[C@H](OC(N)=O)[C@@H](OC)/C=C\C=C(/C)C(=O)NC(=CC1=O)C2=O` [Gdm, Geldanamycin], the “dose-response: observation at the highest dose” value in data set [2] (10 μM, axolotl embryos) was “developmental abnormalities and toxicity”. For the same compound, the “axolotls dead at day 7” value in data set [2] (axolotl (Ambystoma mexicanum), in vivo, 7 day) was 3. The compound further gave a pIC50 in data set [3] of 9.00.

Take `COc1c(O)cc2cc1C[C@@H](C)C[C@H](OC)[C@H](O)[C@@H](C)/C=C(\C)[C@H](OC(N)=O)[C@@H](OC)CC/C=C(\C)C(=O)N2` [reblastatin]: the pIC50 against Hsp90α was 7.52 to 8.30; in data set [3], 6.15.

Take `C=CCNc1c(O)cc2c(O)c1C[C@@H](C)C[C@H](OC)[C@H](O)[C@@H](C)/C=C(\C)[C@H](OC(N)=O)[C@@H](OC)/C=C\C=C(/C)C(=O)N2` [retaspimycin hydrochloride/IPI-504, retaspimycin hydrochloride]: the “solubility relative to first generation analogues” value in data set [4] is listed as “improved solubility”. Moreover, the “hepatotoxicity relative to first generation analogues” value in data set [5] is “reduced hepatotoxicity”.

The values above are taken from article PMC5339036 (Angewandte Chemie (International ed. in English), 2017).
